Source: article PMC3900681, “Flock House Virus RNA Polymerase Initiates RNA Synthesis De Novo and Possesses a Terminal Nucleotidyl Transferase Activity” (PLoS ONE, 2014)

Target: T1, FHV protein A (MBP-Pro A) (Flock House virus, UniProt Q66929)
T1 construct: N-terminal MBP fusion (pMAL-c2X, EcoRI-SalI), tag kept; E. coli, amylose resin; ~155 kDa
Test: RdRP assay, DIG-labelled RNA product on denaturing gel
Type: biochemical
Conditions: blocked (+)-RNA1_1-191 template, 250 uM DIG RNA Labelling Mix, 1 mM MnCl2, pH 8.0, 30 C, 90 min

T1 sequence (Q66929 whole entry, the tested form may be a part): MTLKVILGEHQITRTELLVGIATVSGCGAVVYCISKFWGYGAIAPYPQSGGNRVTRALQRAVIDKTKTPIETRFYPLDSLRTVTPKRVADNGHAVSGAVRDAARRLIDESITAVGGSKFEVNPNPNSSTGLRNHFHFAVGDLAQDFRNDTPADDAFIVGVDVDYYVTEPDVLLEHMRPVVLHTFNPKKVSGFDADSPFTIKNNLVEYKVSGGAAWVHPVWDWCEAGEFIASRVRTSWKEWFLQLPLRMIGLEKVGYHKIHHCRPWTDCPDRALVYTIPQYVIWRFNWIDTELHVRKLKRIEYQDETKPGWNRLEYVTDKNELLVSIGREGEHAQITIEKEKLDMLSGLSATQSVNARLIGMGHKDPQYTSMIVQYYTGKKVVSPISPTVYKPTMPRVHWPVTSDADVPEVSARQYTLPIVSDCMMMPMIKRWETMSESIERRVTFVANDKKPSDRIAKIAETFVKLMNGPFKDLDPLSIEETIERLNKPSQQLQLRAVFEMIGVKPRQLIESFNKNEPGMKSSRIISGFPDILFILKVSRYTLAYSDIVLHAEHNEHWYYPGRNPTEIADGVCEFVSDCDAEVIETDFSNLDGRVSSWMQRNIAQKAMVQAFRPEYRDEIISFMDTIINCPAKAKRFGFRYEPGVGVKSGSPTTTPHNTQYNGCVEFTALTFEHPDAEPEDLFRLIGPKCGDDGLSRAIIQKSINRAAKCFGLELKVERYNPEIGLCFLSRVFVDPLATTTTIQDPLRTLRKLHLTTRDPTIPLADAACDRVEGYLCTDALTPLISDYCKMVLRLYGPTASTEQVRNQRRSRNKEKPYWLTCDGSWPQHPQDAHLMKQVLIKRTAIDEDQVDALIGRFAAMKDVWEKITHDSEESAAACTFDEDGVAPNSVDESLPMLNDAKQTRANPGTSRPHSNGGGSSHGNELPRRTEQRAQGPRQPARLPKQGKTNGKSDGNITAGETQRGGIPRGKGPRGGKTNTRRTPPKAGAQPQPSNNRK

## O=C(O)CP(=O)(O)O [PAA, phosphonoacetic acid]
  inhibition, dose-response: PAA dramatically inhibited the RdRP activity of FHV protein A in a dose-response manner
